Reference: patent US5886207A, “Optically active compound of flubrocythrinate, a process for preparing the same” (Shanghai Zhongxi Pharmaceutical Co. Ltd., priority 1994, dated 1999)

Tests used:
Assay type in all cases: in vivo
[1] = tested on: tetranychus telarius Linnaeus; test: Laboratory toxicity test against tetranychus telarius Linnaeus (Pasting Method); conditions: for LC50 / LC90: mature female mites, glass slide immersion 5 seconds, time 24 (hour); for times as toxic as compound I against tetranychus telarius Linnaeus: relative to compound I, from Table 1
From the text: 1. Laboratory toxicity test against tetranychus telarius Linnaeus
(1) Method of manipulation: (Pasting Method)
Take the robust mature female mites, and paste the back of the mite on a piece of glass with a transparent adhesive tape. Every piece of glass pasted with 40 mites, and three pieces of glasses for each concentration, each insecticide repeated three times at five concentration. […] Immerse the above glasses in a insecticidal solution of specified concentration for 5 seconds and take out from the solution. Use a piece of absorbent paper to absorb the surplus insecticidal solution, transfer the above treated glasses to a culture dish previously fitted with a wetted cotton wool. […] Standard for death judgement: use a needle to move the body of the mite, wholly inflexible judged as death.

wheat aphid = test: Laboratory toxicity test against wheat aphid (Topic application method); conditions: for times as toxic as compound I against wheat aphid: relative to compound I, from Table 2; for LD50: third instar larva, topical 0.083 μl in acetone, 27° C., 48 hours
Description: (§1) 2. Laboratory toxicity test against wheat aphid (1) Method of manipulation (Topic application method) Weigh third instar larva on a swift electronic balance to obtain 8-18 mg/larva, and 0.083 μl of the insecticide solution in acetone at specified concentration with a microsyringe to the dorsal thorax of the larva, and then transfer the larva into a finger-type tube charged with artificial fodder, each tube for one larva, each concentration for 30 tubes, each insecticide run at 5 concentrations, and repeat 3 times. Place the tubes in a thermostat oven at 27° C. for 48 hours, and inspect the number of dead larva. Standard for death judgement: judge the wholly inflexible test aphid as death.

[2] = tested on: tetranychus telarius Linnaeus and wheat aphid; test: Overall comparison of efficacy and dosage with compound I from Tables 1 and 2; conditions: Tables 1 and 2, in words
From the text: Take the robust mature female mites, and paste the back of the mite on a piece of glass with a transparent adhesive tape. Every piece of glass pasted with 40 mites, and three pieces of glasses for each concentration, each insecticide repeated three times at five concentration. […] Immerse the above glasses in a insecticidal solution of specified concentration for 5 seconds and take out from the solution. Use a piece of absorbent paper to absorb the surplus insecticidal solution, transfer the above treated glasses to a culture dish previously fitted with a wetted cotton wool. The culture dish is kept in a thermostat oven at 28° C. for 48 hours, and inspect the number of dead mites under binocular dissecteined microscope. Standard for death judgement: use a needle to move the body of the mite, wholly inflexible judged as death.
as §1, with “Weigh” for “2. Laboratory toxicity test against wheat aphid (1) Method of manipulation (Topic application method) Weigh”
The compound A and Ib are 2.11 times and 1.78 times as toxic as compound I against tetranychus telarius Linnaeus, and are 1.95 times and 1.88 times as toxic as compound I against wheat aphid respectively. Therefore compound Ia has the preferred effect, and the dosage needed is the lowest; the next one are A and compound Ib.

SMILES	LC50 [1] [ppm]	LC90 [1] [ppm]	times as toxic as compound I against tetranychus telarius Linnaeus [1] [times]	times as toxic as compound I against wheat aphid (wheat aphid) [times]	LD50 (wheat aphid) [μg/larva]	dosage compared with compound I [2]	efficacy compared with compound I [2]
CC(C)[C@H](C(=O)O[C@H](C#N)c1cccc(Oc2ccc(Br)cc2)c1)c1ccc(OC(F)F)cc1 (relative stereo) [A]	10	110	2.11	1.95	0.0003712	lower than that of compound I	apparently better than compound I
CC(C)[C@H](C(=O)O[C@H](C#N)c1cccc(Oc2ccc(Br)cc2)c1)c1ccc(OC(F)F)cc1 [Ia, (S)-α-Cyano-3-(4-bromophenoxy)benzyl-(S)-2-(4-difluoromethoxyphenyl)-3-methylbutyrate]	4	52	4.46	4.06	0.0001783	lower than that of compound I	apparently better than compound I
CC(C)[C@H](C(=O)O[C@@H](C#N)c1cccc(Oc2ccc(Br)cc2)c1)c1ccc(OC(F)F)cc1 [Ib, (R)-α-Cyano-3-(4-bromophenoxy)benzyl-(S)-2-(4-difluoromethoxyphenyl)-3-methylbutyrate]	12	130	1.78	1.88	0.000385	lower than that of compound I	apparently better than compound I
CC(C)[C@@H](C(=O)O[C@H](C#N)c1cccc(Oc2ccc(Br)cc2)c1)c1ccc(OC(F)F)cc1 [Ic]	220	2580	–	–	0.009252	–	–
CC(C)[C@@H](C(=O)O[C@@H](C#N)c1cccc(Oc2ccc(Br)cc2)c1)c1ccc(OC(F)F)cc1 [Id, (R)-α-Cyano-3-(4-bromophenoxy)benzyl (R)-2-(4-difluoromethoxyphenyl)-3-methylbutyrate]	1200	8000	–	–	0.05047	–	–
CC(C)C(C(=O)OC(C#N)c1cccc(Oc2ccc(Br)cc2)c1)c1ccc(OC(F)F)cc1 (stereo not drawn) [compound I, α-cyano-3-(4-bromophenoxy) benzyl-2-(4-difluoromethoxyphenyl)-3-methylbutyrate, reference compound]	19	232	–	–	0.0007247	–	–
